From ChEMBL document CHEMBL1201862, “PubChem BioAssay data set” (2004)
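Test compounds were applied to cells in 96-well plates for 48 hours at 5 doses. The concentration for 50% growth inhibition is given as GI50.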 Activity calls are given as the source filed them. No stated cut-off is given here; in the data, active = GI50 up to about 1.1 µM and inactive = higher.

Assays:
Assay in all cases: growth of human tumour cells (NCI), 48 h
OVCAR-5 = tested on: OVCAR-5
SF-539 = tested on: SF-539
M14 = tested on: M14
CAKI-1 = tested on: CAKI-1
Hs-578T = tested on: Hs-578T
EKVX = tested on: EKVX
SK-OV-3 = tested on: SK-OV-3
HOP-62 = tested on: HOP-62
SK-MEL-28 = tested on: SK-MEL-28
NCI-H460 = tested on: NCI-H460
UACC-62 = tested on: UACC-62
PC-3 = tested on: PC-3
SK-MEL-5 = tested on: SK-MEL-5
OVCAR-4 = tested on: OVCAR-4
K562 = tested on: K562
NCI/ADR-RES = tested on: NCI/ADR-RES
SF-268 = tested on: SF-268
DU-145 = tested on: DU-145
KM12 = tested on: KM12
IGROV-1 = tested on: IGROV-1

SMILES | GI50 (OVCAR-5) | GI50 (SF-539) | GI50 (M14) | GI50 (CAKI-1) | GI50 (Hs-578T) | GI50 (EKVX) | GI50 (SK-OV-3) | GI50 (HOP-62) | GI50 (SK-MEL-28) | GI50 (NCI-H460) | GI50 (UACC-62) | GI50 (PC-3) | GI50 (SK-MEL-5) | GI50 (OVCAR-4) | GI50 (K562) | GI50 (NCI/ADR-RES) | GI50 (SF-268) | GI50 (DU-145) | GI50 (KM12) | GI50 (IGROV-1)
Cc1c(-c2ccccc2)oc(=O)c2ccccc12 | 30.8 µM (inactive) | 18.3 µM (inactive) | 22.5 µM (inactive) | 22.4 µM (inactive) | 17.1 µM (inactive) | 18.5 µM (inactive) | 22.8 µM (inactive) | 22.1 µM (inactive) | 19.4 µM (inactive) | 26.4 µM (inactive) | 16.9 µM (inactive) | 24.4 µM (inactive) | 18.5 µM (inactive) | 17.5 µM (inactive) | 30.2 µM (inactive) | 28.4 µM (inactive) | 17.4 µM (inactive) | 37.7 µM (inactive) | 23.4 µM (inactive) | 20.2 µM (inactive)
COC(c1ccsc1)C(C#N)(C#N)/N=C/c1ccsc1 (stereo not given) | 20.9 µM (inactive) | 15.7 µM (inactive) | 17.8 µM (inactive) | 4.68 µM (inactive) | 22.1 µM (inactive) | 14.2 µM (inactive) | 21.1 µM (inactive) | 17.4 µM (inactive) | 18.6 µM (inactive) | 18.4 µM (inactive) | 15.2 µM (inactive) | 14 µM (inactive) | 13.6 µM (inactive) | 20.9 µM (inactive) | 13 µM (inactive) | 17.7 µM (inactive) | 16.1 µM (inactive) | 15.2 µM (inactive) | 16.7 µM (inactive) | 17.1 µM (inactive)
O=C1Nc2ccccc2/C1=N\c1cccc2ncccc12 | 63 µM (inactive) | > 100 µM (inactive) | > 100 µM (inactive) | > 100 µM (inactive) | 39.1 µM (inactive) | 19.1 µM (inactive) | 26.7 µM (inactive) | 46.5 µM (inactive) | > 100 µM (inactive) | 69.7 µM (inactive) | > 100 µM (inactive) | > 100 µM (inactive) | 67 µM (inactive) | 68.9 µM (inactive) | 34 µM (inactive) | > 100 µM (inactive) | 67.1 µM (inactive) | > 100 µM (inactive) | 95.1 µM (inactive) | 51.1 µM (inactive)
O=C(O)/C=C/C=C/c1ccc2c(c1)OCO2 [PIPERIC ACID] | > 100 µM (inactive) | > 100 µM (inactive) | > 100 µM (inactive) | > 100 µM (inactive) | 82.6 µM (inactive) | > 100 µM (inactive) | > 100 µM (inactive) | > 100 µM (inactive) | > 100 µM (inactive) | > 100 µM (inactive) | > 100 µM (inactive) | > 100 µM (inactive) | 94.4 µM (inactive) | > 100 µM (inactive) | > 100 µM (inactive) | > 100 µM (inactive) | > 100 µM (inactive) | > 100 µM (inactive) | > 100 µM (inactive) | > 100 µM (inactive)
COC1CCC(OS(C)(=O)=O)C(C)O1 (stereo not given) | > 10 µM (inactive) | > 10 µM (inactive) | > 10 µM (inactive) | > 10 µM (inactive) | > 10 µM (inactive) | > 10 µM (inactive) | > 10 µM (inactive) | > 10 µM (inactive) | > 10 µM (inactive) | > 10 µM (inactive) | > 10 µM (inactive) | > 10 µM (inactive) | > 10 µM (inactive) | > 10 µM (inactive) | > 10 µM (inactive) | > 10 µM (inactive) | > 10 µM (inactive) | > 10 µM (inactive) | > 10 µM (inactive) | > 10 µM (inactive)
CCCC(=O)Nc1cn(COC)c(C(=O)N2C[C@@H]3C[C@]34C2=CC(=O)c2[nH]cc(C)c24)n1 | 28.7 µM (inactive) | 11.7 µM (inactive) | 13.4 µM (inactive) | 1.91 µM (inactive) | 15.1 µM (inactive) | > 5 µM (inactive) | 11.2 µM (inactive) | 13.6 µM (inactive) | 14.5 µM (inactive) | 4.79 µM (inactive) | 7.62 µM (inactive) | 6.81 µM (inactive) | 4.36 µM (inactive) | 7.82 µM (inactive) | 4.35 µM (inactive) | 7.87 µM (inactive) | 5.31 µM (inactive) | 1.53 µM (inactive) | > 5 µM (inactive) | 9.25 µM (inactive)
CCOC(=O)C(NC(=O)c1ccccc1)(Nc1ccc(S(=O)(=O)Nc2nc(C)cc(C)n2)cc1)C(F)(F)F (stereo not given) | > 100 µM (inactive) | > 100 µM (inactive) | > 100 µM (inactive) | > 100 µM (inactive) | > 100 µM (inactive) | > 100 µM (inactive) | 0.778 µM (active) | > 100 µM (inactive) | > 100 µM (inactive) | > 100 µM (inactive) | > 100 µM (inactive) | > 100 µM (inactive) | > 100 µM (inactive) | > 100 µM (inactive) | > 100 µM (inactive) | > 100 µM (inactive) | > 100 µM (inactive) | > 100 µM (inactive) | > 100 µM (inactive) | > 100 µM (inactive)
CN(/N=C/C=N/N(C)C1=NCCN1)C1=NCCN1 | > 100 µM (inactive) | > 100 µM (inactive) | > 100 µM (inactive) | > 100 µM (inactive) | > 100 µM (inactive) | > 100 µM (inactive) | > 100 µM (inactive) | > 100 µM (inactive) | > 100 µM (inactive) | > 100 µM (inactive) | > 100 µM (inactive) | > 100 µM (inactive) | > 100 µM (inactive) | > 100 µM (inactive) | > 100 µM (inactive) | > 100 µM (inactive) | > 100 µM (inactive) | > 100 µM (inactive) | > 100 µM (inactive) | > 100 µM (inactive)
O=C(O)[C@H]1[C@@H](C2CCCCC2)O[C@@H](C2CCCCC2)O[C@H]1C(F)(F)F | 20.2 µM (inactive) | 35.7 µM (inactive) | 17.9 µM (inactive) | 20.5 µM (inactive) | 23.1 µM (inactive) | 21.4 µM (inactive) | 38.9 µM (inactive) | 24 µM (inactive) | 19.4 µM (inactive) | 19.3 µM (inactive) | 18.5 µM (inactive) | 17.6 µM (inactive) | 20.7 µM (inactive) | 36.2 µM (inactive) | 33.1 µM (inactive) | 40.6 µM (inactive) | 20.2 µM (inactive) | 41.8 µM (inactive) | 22.2 µM (inactive) | 16.6 µM (inactive)
COC1=CC(=O)C2=C(C1=O)[C@H]1CC[C@]3(C)C(=O)CC[C@H]3[C@@H]1CC2 | 20.3 µM (inactive) | 19.6 µM (inactive) | 30.4 µM (inactive) | 25.8 µM (inactive) | 28.5 µM (inactive) | 16.7 µM (inactive) | > 100 µM (inactive) | 59.8 µM (inactive) | 78 µM (inactive) | > 100 µM (inactive) | 30.1 µM (inactive) | 28.5 µM (inactive) | 18.5 µM (inactive) | 15.8 µM (inactive) | 33.6 µM (inactive) | 20.1 µM (inactive) | 21.5 µM (inactive) | 25.3 µM (inactive) | 36.8 µM (inactive) | 21.4 µM (inactive)
COC(=O)CCC(=O)NC1=C(Nc2ccc(OC)cc2)C(=O)c2ccccc2C1=O | 17.1 µM (inactive) | 14.2 µM (inactive) | 7.26 µM (inactive) | 16.9 µM (inactive) | 20.8 µM (inactive) | 17.7 µM (inactive) | 23.7 µM (inactive) | 18.7 µM (inactive) | 17.2 µM (inactive) | 7.21 µM (inactive) | 3.16 µM (inactive) | 9.66 µM (inactive) | 1.83 µM (inactive) | 11.8 µM (inactive) | 23.9 µM (inactive) | 16.3 µM (inactive) | 18.9 µM (inactive) | 14 µM (inactive) | 14.3 µM (inactive) | 11.9 µM (inactive)
CC(C)(C)c1ccccc1N1C(=O)c2ccc3c4c(ccc(c24)C1=O)N(c1ccccc1C(C)(C)C)C3=O | > 100 µM (inactive) | > 100 µM (inactive) | > 100 µM (inactive) | > 100 µM (inactive) | 3.03 µM (inactive) | 14.8 µM (inactive) | > 100 µM (inactive) | > 100 µM (inactive) | > 100 µM (inactive) | > 100 µM (inactive) | > 100 µM (inactive) | 20 µM (inactive) | > 100 µM (inactive) | > 100 µM (inactive) | > 100 µM (inactive) | > 100 µM (inactive) | > 100 µM (inactive) | > 100 µM (inactive) | > 100 µM (inactive) | > 100 µM (inactive)
